Experimental data reported in the supplement of paper PMC10307832.

Columns and labels:
Experiment in all cases: relative viability (nuclei count vs DMSO), 5 days (fraction); higher = more cells survive
[1] = test system: SK-MES-1
Summary of the method: (§1)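 Relative viability is defined as nuclei in treated wells over nuclei in vehicle wells. Duplicate plates were run and medians reported. Lung cancer cell lines in 1536-well plates were dosed by pin tool one day after seeding, with one drug or with a fixed anchor-drug dose plus five library-drug doses (not always all listed) in √10 steps, and nuclei were counted after 5 days.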

[2] = test system: NCI-H2347
Summary of the method: as §1

[3] = test system: HCC-15
Summary of the method: as §1

[4] = test system: COR-L 105
Summary of the method: as §1

[5] = test system: UMC-11
Summary of the method: as §1

[6] = test system: NCI-H838
Summary of the method: as §1

[7] = test system: HARA
Summary of the method: as §1

[8] = test system: NCI-H2009
Summary of the method: as §1

[9] = test system: COR-L23
Summary of the method: as §1

[10] = test system: NCI-H1792
Summary of the method: as §1

[11] = test system: NCI-H522
Summary of the method: as §1

[12] = test system: HOP-62
Summary of the method: as §1

[13] = test system: NCI-H2170
Summary of the method: as §1

[14] = test system: NCI-H647
Summary of the method: as §1

[15] = test system: NCI-H1355
Summary of the method: as §1

[16] = test system: NCI-H2228
Summary of the method: as §1

[17] = test system: NCI-H1793
Summary of the method: as §1

[18] = test system: NCI-H1395
Summary of the method: as §1

[19] = test system: NCI-H1734
Summary of the method: as §1

[20] = test system: NCI-H358
Summary of the method: as §1

[21] = test system: NCI-H1993
Summary of the method: as §1

[22] = test system: NCI-H1755
Summary of the method: as §1

## CC(=O)O[C@@]12CO[C@@H]1C[C@H](O)[C@@]1(C)C(=O)[C@H](O)C3=C(C)[C@@H](OC(=O)[C@H](O)[C@@H](NC(=O)OC(C)(C)C)c4ccccc4)C[C@@](O)([C@@H](OC(=O)c4ccccc4)[C@H]21)C3(C)C [Docetaxel] + CC(=O)Nc1cccc(-n2c(=O)n(C3CC3)c(=O)c3c(Nc4ccc(I)cc4F)n(C)c(=O)c(C)c32)c1 [Trametinib] (partner 0.02 µM)
[1]; first compound 0.0002 µM
  relative viability: 0.63
[1]; first compound 0.000632 µM
  relative viability: 0.758
[1]; first compound 0.002 µM
  relative viability: 0.436
[1]; first compound 0.006325 µM
  relative viability: 0.313
[1]; first compound 0.02 µM
  relative viability: 0.185
[2]; first compound 0.0002 µM
  relative viability: 0.243
[2]; first compound 0.000632 µM
  relative viability: 0.349
[2]; first compound 0.002 µM
  relative viability: 0.262
[2]; first compound 0.006325 µM
  relative viability: 0.271
[2]; first compound 0.02 µM
  relative viability: 0.229
[3]; first compound 0.0002 µM
  relative viability: 0.401
[3]; first compound 0.000632 µM
  relative viability: 0.313
[3]; first compound 0.002 µM
  relative viability: 0.193
[3]; first compound 0.006325 µM
  relative viability: 0.247
[3]; first compound 0.02 µM
  relative viability: 0.159
[4]; first compound 0.0002 µM
  relative viability: 0.399
[4]; first compound 0.000632 µM
  relative viability: 0.445
[4]; first compound 0.002 µM
  relative viability: 0.428
[4]; first compound 0.006325 µM
  relative viability: 0.339
[4]; first compound 0.02 µM
  relative viability: 0.392
[5]; first compound 0.0002 µM
  relative viability: 0.62
[5]; first compound 0.000632 µM
  relative viability: 0.788
[5]; first compound 0.002 µM
  relative viability: 0.358
[5]; first compound 0.006325 µM
  relative viability: 0.216
[5]; first compound 0.02 µM
  relative viability: 0.147
[6]; first compound 0.0002 µM
  relative viability: 0.456
[6]; first compound 0.000632 µM
  relative viability: 0.638
[6]; first compound 0.002 µM
  relative viability: 0.183
[6]; first compound 0.006325 µM
  relative viability: 0.141
[6]; first compound 0.02 µM
  relative viability: 0.0997
[7]; first compound 0.0002 µM
  relative viability: 0.456
[7]; first compound 0.000632 µM
  relative viability: 0.155
[7]; first compound 0.002 µM
  relative viability: 0.235
[7]; first compound 0.006325 µM
  relative viability: 0.16
[7]; first compound 0.02 µM
  relative viability: 0.104
[8]; first compound 0.0002 µM
  relative viability: 0.273
[8]; first compound 0.000632 µM
  relative viability: 0.312
[8]; first compound 0.002 µM
  relative viability: 0.295
[8]; first compound 0.006325 µM
  relative viability: 0.233
[8]; first compound 0.02 µM
  relative viability: 0.175
[9]; first compound 0.0002 µM
  relative viability: 0.528
[9]; first compound 0.000632 µM
  relative viability: 0.579
[9]; first compound 0.002 µM
  relative viability: 0.223
[9]; first compound 0.006325 µM
  relative viability: 0.155
[9]; first compound 0.02 µM
  relative viability: 0.0909
[10]; first compound 0.0002 µM
  relative viability: 0.377
[10]; first compound 0.000632 µM
  relative viability: 0.338
[10]; first compound 0.002 µM
  relative viability: 0.31
[10]; first compound 0.006325 µM
  relative viability: 0.142
[10]; first compound 0.02 µM
  relative viability: 0.0842
[11]; first compound 0.0002 µM
  relative viability: 0.79
[11]; first compound 0.000632 µM
  relative viability: 0.723
[11]; first compound 0.002 µM
  relative viability: 0.676
[11]; first compound 0.006325 µM
  relative viability: 0.42
[11]; first compound 0.02 µM
  relative viability: 0.389
[12]; first compound 0.0002 µM
  relative viability: 0.328
[12]; first compound 0.000632 µM
  relative viability: 0.446
[12]; first compound 0.002 µM
  relative viability: 0.355
[12]; first compound 0.006325 µM
  relative viability: 0.32
[13]; first compound 0.0002 µM
  relative viability: 0.887
[13]; first compound 0.000632 µM
  relative viability: 0.848
[13]; first compound 0.002 µM
  relative viability: 0.746
[13]; first compound 0.006325 µM
  relative viability: 0.222
[13]; first compound 0.02 µM
  relative viability: 0.167
[14]; first compound 0.0002 µM
  relative viability: 0.331
[14]; first compound 0.000632 µM
  relative viability: 0.361
[14]; first compound 0.002 µM
  relative viability: 0.178
[14]; first compound 0.006325 µM
  relative viability: 0.118
[14]; first compound 0.02 µM
  relative viability: 0.0816
[15]; first compound 0.0002 µM
  relative viability: 0.384
[15]; first compound 0.000632 µM
  relative viability: 0.441
[15]; first compound 0.002 µM
  relative viability: 0.262
[15]; first compound 0.006325 µM
  relative viability: 0.26
[15]; first compound 0.02 µM
  relative viability: 0.183
[16]; first compound 0.0002 µM
  relative viability: 0.529
[16]; first compound 0.000632 µM
  relative viability: 0.233
[16]; first compound 0.002 µM
  relative viability: 0.202
[16]; first compound 0.006325 µM
  relative viability: 0.188
[16]; first compound 0.02 µM
  relative viability: 0.121
[17]; first compound 0.0002 µM
  relative viability: 0.378
[17]; first compound 0.000632 µM
  relative viability: 0.433
[17]; first compound 0.002 µM
  relative viability: 0.384
[17]; first compound 0.006325 µM
  relative viability: 0.316
[17]; first compound 0.02 µM
  relative viability: 0.272
[18]; first compound 0.0002 µM
  relative viability: 1.04
[18]; first compound 0.000632 µM
  relative viability: 1.06
[18]; first compound 0.002 µM
  relative viability: 0.907
[18]; first compound 0.006325 µM
  relative viability: 0.467
[18]; first compound 0.02 µM
  relative viability: 0.297
[19]; first compound 0.0002 µM
  relative viability: 0.615
[19]; first compound 0.000632 µM
  relative viability: 0.54
[19]; first compound 0.002 µM
  relative viability: 0.351
[19]; first compound 0.006325 µM
  relative viability: 0.337
[19]; first compound 0.02 µM
  relative viability: 0.198
[20]; first compound 0.0002 µM
  relative viability: 0.167
[20]; first compound 0.000632 µM
  relative viability: 0.138
[20]; first compound 0.002 µM
  relative viability: 0.124
[20]; first compound 0.006325 µM
  relative viability: 0.0884
[20]; first compound 0.02 µM
  relative viability: 0.083
[21]; first compound 0.0002 µM
  relative viability: 0.504
[21]; first compound 0.000632 µM
  relative viability: 0.578
[21]; first compound 0.002 µM
  relative viability: 0.546
[21]; first compound 0.006325 µM
  relative viability: 0.481
[21]; first compound 0.02 µM
  relative viability: 0.3
[22]; first compound 0.0002 µM
  relative viability: 0.766
[22]; first compound 0.000632 µM
  relative viability: 0.743
[22]; first compound 0.002 µM
  relative viability: 0.555
[22]; first compound 0.006325 µM
  relative viability: 0.415
[22]; first compound 0.02 µM
  relative viability: 0.381
